# Test system: SK-MEL-5 TRPM1-promoter luciferase reporter, 24 h
# Assay: reducers of TRPM1 reporter luminescence, concentration series – cell-based, SK-MEL-5, cherry-picked, set 4, MITF inhibitor project, dose response (AID 493102);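 also: actives lower the luciferase signal so the potency reflects inhibition of reporter expression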
row,SMILES,AC50
1,COc1ccc(S(=O)(=O)N(C(C)=O)c2ccc(OC(C)=O)c3ccccc23)cc1[N+](=O)[O-],11.6 µM
2,CCCOc1ccc(C(=O)C(CN2CCCC2)c2ccccc2)cc1 (configuration not stated),8.62 µM
3,C=C1C(=O)O[C@@H]2[C@H]1[C@@H](OC(=O)/C(C)=C/C)C/C(C)=C\C(=O)/C=C(\C)[C@@H]2O,7.07 µM
4,CN1CCN(c2ccc(NC(=S)NC(=O)c3cccc4ccccc34)cc2)CC1,9 µM
5,CC(C)N1C(=O)/C(=C/C=C/c2ccco2)C(=O)N(Cc2ccco2)C1=O,9.97 µM
6,O=C(NC1CCCC(C(F)(F)F)C1)c1ccc([N+](=O)[O-])o1 (configuration not stated),11.2 µM
7,COC(=O)CCS(=O)(=O)c1nc(-c2ccccc2)cc(C(F)(F)F)n1,5.85 µM
8,COc1ccc(C(=O)/C=C/C(=O)N(CC(=O)NC2CCCCC2)Cc2cccs2)c(O)c1,5.53 µM
9,COc1ccccc1NC(=O)c1cnc(SCC(=O)NCC2CCCO2)n(C)c1=O (configuration not stated),8.88 µM
10,Cc1[nH]nc2nc(SCC(=O)NCCC3=CCCCC3)n(-c3ccc(Br)cc3)c(=N)c12,2.46 µM
11,CC(/C=C1\SC(=O)N(CCCC(=O)O)C1=O)=C\c1ccccc1,2.36 µM
12,Cc1ccc(-n2cc(CNCCCn3ccnc3C)c(-c3ccc(F)cc3)n2)cc1,7.58 µM
13,O=S(=O)(c1ccc(F)cc1)c1snnc1-c1ccccc1,15.1 µM
14,O=C(CCl)Nc1cn(-c2ccccc2)nc1-c1ccccc1,14.5 µM
15,COc1ccc2nc(C)cc(NCc3cccc(C(F)(F)F)c3)c2c1,18.2 µM
16,Cc1cc(C)c[n+](C2=C([O-])c3ccccc3C(=O)/C2=N\S(=O)(=O)c2cccs2)c1,2.95 µM
17,CCOc1ccc(-c2ccc(SC)nn2)cc1,5.17 µM
18,CC(C)CC(=O)/C=C/n1c(=S)oc2ccccc21,10.5 µM
19,COc1cc(SC)ccc1C(=O)Nc1ncc(C)s1,3.65 µM
20,N#C/C(=C(/O)CCl)c1nc2ccccc2[nH]1,4.6 µM
21,COc1cc2c(c(OC)c1OC)-c1ccc(OC)c(=O)cc1C(NC(C)=O)CC2 (configuration not stated),0.056 µM
22,O=C(CCl)Nc1cccc(S(=O)(=O)NC2=NCCCCC2)c1,7.85 µM
23,Cc1cc(Sc2ncnc(N)c2[N+](=O)[O-])ncn1,7.61 µM
24,CC(Oc1ccc(F)cc1)C(=O)Nc1nc(-c2ccccn2)cs1 (configuration not stated),9.42 µM

row,SMILES,AC50
1,O=C(/C=C/Nc1ccccc1Br)c1ccccn1,0.899 µM
2,CC(=O)SC(C[N+](=O)[O-])c1cn(C(C)=O)c2ccccc12 (configuration not stated),3.54 µM
3,COc1cc2c(cc1/C=C/[N+](=O)[O-])OCO2,8.98 µM
4,O=C(CNc1cccc2ccccc12)N/N=C/c1ccc([N+](=O)[O-])o1,5.04 µM
5,O=S(=O)(CC(CN1CCCCC1)N1CCCCC1)c1ccc2ccccc2c1 (configuration not stated),12.5 µM
6,COc1cccc(C(=O)Oc2c(CN3CCOCC3)cc(Cl)c3cccnc23)c1,9.89 µM
7,O=C(CCl)Nc1cccc(-c2cnc3ccccc3n2)c1,4.02 µM
8,CCN1CCN(/C=N/c2nc3c(s2)CCCC3)CC1,6.42 µM
9,COc1ccc(C(=O)/C=C/C(=O)N(CC(=O)NC2CCCCC2)CC2CCCO2)c(O)c1 (configuration not stated),4.01 µM
10,COc1cc(NC(=O)COc2ccccc2[N+](=O)[O-])ccc1NC(=O)c1cccs1,10.1 µM
11,COc1cccc(/C=N/Nc2ncnc3c2ncn3Cc2ccccc2)c1O,4.6 µM
12,CC(C)(C)C(=O)Nc1cc2nn(-c3ccccc3)nc2cc1Cl,0.495 µM
13,Cn1cc(C(=O)CCl)c2ccccc21,8.48 µM
14,O=C1c2ccccc2C(=O)c2c1ncn2-c1ccccc1,7.33 µM
15,C/C(=N\NC(=O)C1COc2ccccc2O1)c1ccccn1 (configuration not stated),4.49 µM
16,COc1cccc(NC(=O)Nc2cccc(C(=O)O)c2)c1,2.37 µM
17,Cc1ccccc1C(=O)N1CCN(c2ccc(NC(=O)c3ccc([N+](=O)[O-])o3)cc2)CC1,6.2 µM
18,Cc1ccccc1-c1nc(-c2ccccn2)no1,4.18 µM
19,O=C(O)c1cccc(N/N=C/c2cccs2)c1,1.51 µM
20,CCC(=O)N1CCN(c2ccc(NC(=O)c3ccc([N+](=O)[O-])o3)cc2Cl)CC1,6.08 µM
21,Cc1ccc(N2C(=O)NC(=O)/C(=C/C=C/c3ccco3)C2=O)cc1,5.97 µM
22,CCOc1ccc(NC(=O)Nc2cccc(C(=O)O)c2)cc1,1.53 µM
23,Cc1cc(NC(=O)c2cncc(Br)c2)ccc1NC(=O)c1cc2ccccc2o1,10.4 µM
24,Cc1cccc(/C=C2/Sc3ccc(C(=O)NCCN4CCCC4)cc3NC2=O)c1,18.4 µM

row,SMILES,AC50
1,Cc1ccc(S(=O)(=O)Nc2cccc3cccnc23)cc1,5.55 µM
2,CCOC(=O)CSC1=NC(=O)/C(=C/c2ccc(OC)cc2)S1,3.98 µM
3,CCCC(=O)N1CCN(c2ccc(NC(=O)c3ccc([N+](=O)[O-])o3)cc2Cl)CC1,7.65 µM
4,CCCCN1CCc2c1nc1ccc(Br)cc1c2N,12.2 µM
5,COc1cccc2c1C(=O)C=C(C)C2=O,7.83 µM
6,CN(C)S(=O)(=O)c1ccc(-c2csc(N/N=C/c3ccco3)n2)cc1,3.9 µM
7,O=[N+]([O-])c1cc(Cl)cc(/C=N\Nc2ccccn2)c1O,4.49 µM
8,Cc1cccc(NC(=O)c2ccc([N+](=O)[O-])o2)c1C,14.8 µM
9,CCCCNC(=O)Nc1ccc(C2SCCS2)cc1,35.3 µM
10,CC(=O)CSc1ccc(-c2nc3cc(C)c(C)cc3[nH]2)cn1,3.67 µM
11,COc1cccc(CNCCc2c[nH]c3ccccc23)c1OCc1ccccc1,14.4 µM
12,Oc1c(CN2CCCC2)cc(COCc2ccccc2)c2cccnc12,6.15 µM
13,CC1CCCCC1NC(=O)/C(C#N)=C/C=C/c1ccccc1[N+](=O)[O-] (configuration not stated),7.92 µM
14,O=C1NC(=O)N(Cc2ccccc2)C(=O)/C1=C\C=C\c1ccco1,6.29 µM
15,CCOc1c(Br)cc(CNC2CCCCCCC2)cc1OC,20.5 µM
16,Cc1ccc(C(=O)N/N=C/c2ccc([N+](=O)[O-])s2)cc1,2.2 µM
17,Cn1cc([N+](=O)[O-])c(C(=O)Nc2nc(-c3ccc(Cl)cc3)cs2)n1,10.5 µM
18,Cc1ccc2c(c1)COc1c3ccc(C(=O)O)cc3nn1-2,2.23 µM
19,Cc1ccc(-c2cn3nc(C)c(C)nc3n2)cc1,5.3 µM
20,CC(C)(C)c1ccc(/C=N/Nc2ccc(C(=O)O)cc2)cc1,6.03 µM
21,N#C/C(=C\c1ccc(OCc2ccc(C(=O)O)cc2)cc1)C(=O)N1CCOCC1,1.19 µM
22,O=C(Cn1ncc(Cl)c(Cl)c1=O)N1CCN(Cc2ccccc2)CC1,10.9 µM
23,C/C(=N\NC(=O)C(C)Oc1ccc([N+](=O)[O-])cc1)c1ccccn1 (configuration not stated),2.39 µM
24,COc1ccc(Br)cc1C(C[N+](=O)[O-])c1c(N)n(C)c(=O)n(C)c1=O (configuration not stated),8.73 µM
